# Test results as given in patent publication US20240382399A1, “ANTISEBOGENIC COMPOSITION, FORMULATION AND USE OF THE COMPOSITION” (CHEMYUNION LTDA., priority 2021, published 2024).
# Experiments:
# [1] = tested on: C. acnes; details: concentrations of 6.9 mM (1 mg/mL) and 8.6 mM (1 mg/mL); cited from earlier work
# [2] = tested on: 5-alpha reductase type 1; experiment: Expression of 5-alpha reductase type 1 in cultured human keratinocytes (real-time PCR); format: cell-based; details: Testosterone 1.10^-8 mol/L, 24 hours; compared to the baseline control, P<0.05
# Protocol: The objective of the test was to evaluate the effects of P19/7 on the expression of 5-alpha reductase type 1 in cultured human keratinocytes. The enzyme 5-alpha-reductase […] acts in the conversion of testosterone into dihydrotestosterone (DHT), a steroid responsible for modulating sebaceous secretion.
# To carry out the assay, commercially obtained human keratinocytes (Rio de Janeiro Cell Bank—BCRJ) were cultivated in specific culture media and maintained in a humid incubator at 37° C. containing 5% CO2. When they reached confluence (3rd to 5th passage), cells were seeded in a 6-well plate and incubated with 0.0049% (w/v) P19/7+Testosterone (1.10^−8 mol/L) or Testosterone (1.10^−8 mol/L) for a period of 24 hours. After 24 hours of incubation, RNA was extracted using the PureLink RNA Mini Kit (Thermo Fisher) and quantified using the NanoDrop Lite spectrophotometer (Thermo Scientific). Tests were performed on a StepOnePlus device (Applied Byosystems). To perform real-time PCR, a commercially available analysis system was used (TaqMan® Gene Expression Assays; SRD5A1: (HS00971643_G1, 5-alpha reductase type 1); B2M: Hs00984230_m1; Applied Biosystems), with primers and probes based on sequence consensus using the TaqMan® RNA-to-CT™ 1-step kit (Applied Byosystems). […] Gene expression of 5-alpha reductase was calculated according to Pfaffl (2001).
Compound,inhibitory effect on the growth of C. acnes [1],increase of relative expression of type 1 5-alpha-reductase [2] [%]
CCCCCCCC(=O)O [caprylic acid],no apparent inhibitory effect,–
"C[C@]12CC[C@H]3[C@@H](CCC4=CC(=O)CC[C@@]43C)[C@@H]1CC[C@@H]2O [testosterone, Testosterone]",–,13
